# Reference: patent publication EP4717694A1, “PYRAZOLFORMYL PIPERAZINONE COMPOUND, PHARMACEUTICAL COMPOSITION AND USE THEREOF” (Iregene Therapeutics Co., Ltd., priority 2023, dated 2024)
# Key:
# [1] = tested on: OVCAR3; assay: CCK-8 cell viability assay; assay type: cell-based
# Method: Tumor cells OVCAR3 (ovarian cancer), HeLa ([…]), U251 (glioma), H9 cells, and non-tumor HEK293 cells were cultured in DMEM/F12 medium supplemented with 10% FBS and 1% P/S. When cells reached 70% confluency, they were digested with 0.25% Trypsin at 37°C for 2-3 minutes, and digestion was stopped with DMEM/F12 medium. Cell suspensions were collected in 15 mL centrifuge tubes, centrifuged at 1000 rpm for 5 minutes, the supernatant was discarded, and cells were resuspended in DMEM/F12 medium with 10% FBS and 1% P/S. Cells were counted using a hemocytometer, and based on the counts, they were resuspended to the desired concentration. Tumor cells were seeded in 96-well plates at 1×10^4 cells per well, 100 µL per well. From day 1 to day 7 after seeding, cells were treated with compound II-1 at 0 µM, 10 µM, 30 µM, and 50 µM (the pyrazolecarbonyl piperazinone compounds were diluted to 10 µM, 30 µM, and 50 µM with DMEM + 10% FBS). Each concentration was tested in triplicate wells.
# Cell viability on days 1, 3, 5, and 7 was determined using the CCK-8 cell proliferation/cytotoxicity assay kit (Vazyme, A311-02) by measuring absorbance at OD450 nm, with wells containing only medium and CCK-8 solution as blank controls. Each concentration was measured in triplicate.
# Calculation of cell survival rate: For the same cell type at the same time point, the absorbance of cells not treated with compound II-1 was set as 100% baseline. For cells treated with different concentrations, the absorbance was compared with the control group (CK) to calculate the relative proportion. For example, the survival rate of H9 cells on day 4 treated with 30 µM of the small molecule compound was calculated as follows: [OD(D4)30μMiPS]/[OD(D4)0μMH9] × 100% [formula] Table 2. Cell survival rates of various cell types after treatment with different concentrations of compound II-1 measured by CCK-8 assay
# [2] = target: T1, BMPR2 (Homo sapiens, UniProt Q13873); assay: Kinase activity assay (HTRF or ADP-Glo); assay type: biochemical
# T1 sequence (Q13873 27-1038): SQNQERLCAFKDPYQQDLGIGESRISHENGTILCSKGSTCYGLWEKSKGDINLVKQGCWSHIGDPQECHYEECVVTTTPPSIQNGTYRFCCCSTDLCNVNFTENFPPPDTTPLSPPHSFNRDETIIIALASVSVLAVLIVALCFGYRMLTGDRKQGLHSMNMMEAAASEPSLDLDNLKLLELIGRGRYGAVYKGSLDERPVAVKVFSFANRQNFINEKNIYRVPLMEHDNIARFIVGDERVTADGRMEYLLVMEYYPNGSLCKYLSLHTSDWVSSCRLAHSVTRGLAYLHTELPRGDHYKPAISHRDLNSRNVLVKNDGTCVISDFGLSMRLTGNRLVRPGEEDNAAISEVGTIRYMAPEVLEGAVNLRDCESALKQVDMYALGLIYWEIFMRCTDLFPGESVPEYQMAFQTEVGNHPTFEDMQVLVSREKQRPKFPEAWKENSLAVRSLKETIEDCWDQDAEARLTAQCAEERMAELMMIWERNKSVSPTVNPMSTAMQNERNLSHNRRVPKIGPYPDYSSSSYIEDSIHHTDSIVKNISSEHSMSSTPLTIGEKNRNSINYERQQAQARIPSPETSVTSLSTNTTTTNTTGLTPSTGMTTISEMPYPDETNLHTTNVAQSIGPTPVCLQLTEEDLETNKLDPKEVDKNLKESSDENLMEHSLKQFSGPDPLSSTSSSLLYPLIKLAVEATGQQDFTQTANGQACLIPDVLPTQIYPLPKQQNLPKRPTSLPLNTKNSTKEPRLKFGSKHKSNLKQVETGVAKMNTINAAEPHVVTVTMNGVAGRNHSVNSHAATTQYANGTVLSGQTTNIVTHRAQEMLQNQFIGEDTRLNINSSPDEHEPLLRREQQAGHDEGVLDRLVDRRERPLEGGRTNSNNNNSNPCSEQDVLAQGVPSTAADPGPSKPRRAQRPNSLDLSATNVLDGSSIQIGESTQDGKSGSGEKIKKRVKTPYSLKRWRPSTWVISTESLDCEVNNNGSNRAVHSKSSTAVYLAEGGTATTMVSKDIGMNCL
# Method: (§1) A total of 330 kinase candidates (15-50 nM, 2.5 µL) were mixed with compound II-1 (2.5 mM, 25 nL, prepared in DMSO) and incubated at 25 °C for 10 minutes. Then, a mixture of kinase peptide substrate (0.2 mg/mL; supplier: GenScript) and ATP (10-60 µM; supplier: Promega; product number: V915B) was added (total 2.5 µL, prepared in assay buffer), and the reaction was carried out at 25 °C for 60-120 minutes. Finally, the reaction products were quantified using HTRF1 or ADP-Glo2 methods. During the kinase activity assay, the consumption of each substrate was kept below 10%, and each kinase assay was performed in duplicate.
# [3] = target: T2, TGFBR1 (Homo sapiens, UniProt P36897); assay: Kinase activity assay (HTRF or ADP-Glo); assay type: biochemical
# T2 sequence (P36897 34-503): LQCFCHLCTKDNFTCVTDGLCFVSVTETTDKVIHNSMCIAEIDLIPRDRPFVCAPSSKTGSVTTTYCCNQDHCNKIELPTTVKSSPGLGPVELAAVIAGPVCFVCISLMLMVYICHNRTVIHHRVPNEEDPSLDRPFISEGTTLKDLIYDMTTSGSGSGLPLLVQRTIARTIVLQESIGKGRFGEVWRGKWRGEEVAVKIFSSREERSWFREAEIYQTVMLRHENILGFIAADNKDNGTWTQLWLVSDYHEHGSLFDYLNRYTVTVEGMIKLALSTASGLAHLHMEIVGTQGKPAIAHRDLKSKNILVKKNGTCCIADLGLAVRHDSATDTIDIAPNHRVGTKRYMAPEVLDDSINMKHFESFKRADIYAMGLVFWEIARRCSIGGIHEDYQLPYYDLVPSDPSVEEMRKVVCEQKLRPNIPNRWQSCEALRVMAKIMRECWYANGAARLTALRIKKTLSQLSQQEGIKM
# Method: as §1
# [4] = same concentration as in the 330 kinase screen
structure (smiles),measurement,setting,value
"O=C1CN(C(=O)c2n[nH]c3c2CCC3)[C@H]2CCCC[C@@H]2N1 [II-1, (4aS,8aS)-4-(1,4,5,6-tetrahydrocyclopenta[c]pyrazole-3-carbonyl)octahydroquinoxalin-2(1H)-one]",Cell survival rate,"[1]; OVCAR3, II-1 10 µM, Day 1 Treatment",95.05%
same,Cell survival rate,"[1]; OVCAR3, II-1 10 µM, Day 3 Treatment",98.06%
same,Cell survival rate,"[1]; OVCAR3, II-1 10 µM, Day 5 Treatment",96.19%
same,Cell survival rate,"[1]; OVCAR3, II-1 10 µM, Day 7 Treatment",97.99%
same,Cell survival rate,"[1]; OVCAR3, II-1 30 µM, Day 1 Treatment",89.67%
same,Cell survival rate,"[1]; OVCAR3, II-1 30 µM, Day 3 Treatment",94.18%
same,Cell survival rate,"[1]; OVCAR3, II-1 30 µM, Day 5 Treatment",92.35%
same,Cell survival rate,"[1]; OVCAR3, II-1 30 µM, Day 7 Treatment",90.98%
same,Cell survival rate,"[1]; OVCAR3, II-1 50 µM, Day 1 Treatment",88.56%
same,Cell survival rate,"[1]; OVCAR3, II-1 50 µM, Day 3 Treatment",90.37%
same,Cell survival rate,"[1]; OVCAR3, II-1 50 µM, Day 5 Treatment",85.37%
same,Cell survival rate,"[1]; OVCAR3, II-1 50 µM, Day 7 Treatment",80.83%
same,"cell viability, course with time and concentration","[1]; OVCAR3, II-1 10-50 µM, days 1-7",gradual decrease in cell viability over time
same,inhibition of BMPR2 kinase,"[2]; different concentrations, up to 12.5 µM, threefold serial dilution, Figure 1C",no inhibition
same,inhibition of kinase activity of BMPR2,[2]; [4],did not inhibit
same,inhibition of TGFBR1 kinase,"[3]; different concentrations, up to 12.5 µM, threefold serial dilution, Figure 1B",no inhibition
same,inhibition of kinase activity of TGFBR1,[3]; [4],did not inhibit
